From patent publication EP4745145A1, “SALT OF THIAZOLOPYRAZINE COMPOUND OR CRYSTAL THEREOF AND USE THEREOF” (Simcere Zaiming Pharmaceutical Co., Ltd., priority 2023, dated 2025)

Legend:
[1] = system: POLQ-mediated MMEJ pathway; assay: Inhibition of cellular MMEJ pathway (NanoLuciferase reporter in HEK293T cells); type: cell-based; settings: 24 h
Protocol: Brief introduction to experimental principle: POLQ is a key protein in the repair process of cellular MMEJ. The NanoLuciferase MMEJ repair reporter system was transferred into HEK293T cells. When the MMEJ repair pathway was normally performed in the cells, the NanoLuciferase reporter protein was correctly expressed, and the cell luminescence signal could be detected. The decrease in cell luminescence was measured using a BMG multifunctional microplate reader from BMG LABTECH to reflect the inhibition of the compound on the cellular MMEJ pathway.
Experimental methods: The test compound was diluted to different concentrations with dimethyl sulfoxide (DMSO) using an Echo 655 pipetting system and transferred to a 384-well plate. In the reaction system, the compound was serially diluted 3-fold from the final concentration of 10 µM. The final concentration of DMSO was 0.1%. HEK293T cells were collected, an MMEJ luciferase […] was transferred to the cells using a Neon transfection system, and the transfected HEK293T cells at 4000 cells/well were diluted with a DMEM medium containing 10% FBS and added to a 384-well plate (25 µL/well).
The compound inhibition rate was calculated and fitted using XLfit software to give the IC50 of the compounds. A Blank well and a DMSO well were set in the experiment.

hepatocytes = assay: Metabolic stability in hepatocytes; type: in vitro ADME; settings: hepatocytes of various species
Protocol: The metabolic stability of the compounds of the present disclosure in hepatocytes was determined by the following test method.
• 1. Human hepatocytes (Biopredic BQHPCH10), cynomolgus monkey hepatocytes (RILD HP-SXH-02M), Beagle dog hepatocytes (BioIVT M00205), SD rat hepatocytes (BioIVT M00005), and CD-1 mouse hepatocytes (BioIVT M00505) • 2. AOPI stain (Nexcelom 200710-01-01) • 3. Dexamethasone (NIFDC 100129-201506) • 4. DPBS (10×) (Gibco by Life Technologies 2060570) • 5. Fetal bovine serum (FBS) (Corning 35081001) • 6. GlutaMAXTM-1 (100×) (Gibco by Life Technologies 2186980) • 7. HEPES (Sigma RNBJ1276) • 8. Human recombinant insulin (Gibco by Life Technologies 2090407) • 9. Isotonic Percoll (GE Healthcare 10288259) • 10. Verapamil (Sigma MKBV4993V) • 11. Williams' Medium E (Sigma RNBJ3314) • 12. […]
All data were calculated by Microsoft Excel software. The peak area was detected through an extracted ion chromatogram. The in vitro half-life (t1/2) of the compound was determined by performing linear fitting of the natural logarithm of elimination percent of the compound and time.
In vitro half-life (t1/2) was calculated by the slope: in vitro t1/2 = 0.693/k [formula]
The in vitro intrinsic clearance (unit: µL/min/mg protein) was calculated using the following formula: in vitro CLint = k × volume of incubation (μL)/amount of proteins (mg) [formula] […]

Structure (SMILES): COc1ccc(Cl)cc1-c1cc(C)ncc1C(=O)Nc1nc2ncc(-c3ccc(C#N)cc3)nc2s1 [Compound of formula I, 4-(5-chloro-2-methoxyphenyl)-N-[6-(4-cyanophenyl)thiazolo[4,5-b]pyrazin-2-yl]-6-methylnicotinamide]
- inhibitory activity on the POLQ-mediated MMEJ pathway in cells [1]: strong inhibitory activity
- metabolic stability in hepatocytes (hepatocytes): metabolically stable
